≈ marks a conversion by molar mass, not a printed value. One block for each molecule: values may come before it.
Experiments:
Escherichia coli [1] = assay: Minimal inhibitory concentration against Escherichia coli; assay type: functional
Staphylococcus aureus [2] = assay: In vitro minimal inhibitory concentration against Staphylococcus aureus.; assay type: functional
Bacteria = assay: Inhibitory activity against bacteria in the transcription/translation assay; assay type: functional, organism-based
Enterococcus hirae [3] = assay: Minimal inhibitory concentration against gram positive Enterococcus hirae 29212 strain (Range is 1-3 uM); assay type: functional
Escherichia coli [4] = assay: Minimal inhibitory concentration against Escherichia coli (Range is 25-50 uM); assay type: functional
Escherichia coli [5] = assay: Minimal inhibitory concentration against gram negative Escherichia coli 25922 strain (Range is 25-50 uM); assay type: functional; details: ATCC25922
Klebsiella pneumoniae [6] = assay: Minimal inhibitory concentration against gram negative Klebsiella pneumoniae 13383 strain (Range is 12-25 uM); assay type: functional
Pseudomonas aeruginosa [7] = assay: Minimal inhibitory concentration against gram negative Pseudomonas aeruginosa 25416 strain; assay type: functional
Proteus vulgaris [8] = assay: Minimal inhibitory concentration against gram negative Proteus vulgaris 8427 strain; assay type: functional
Staphylococcus aureus [9] = assay: Minimal inhibitory concentration against Staphylococcus aureus (Range is 6-12 uM); assay type: functional
Staphylococcus aureus [10] = assay: Minimal inhibitory concentration against gram positive Staphylococcus aureus 13709 strain (Range is 6-12 uM); assay type: functional
Streptococcus pyogenes [11] = assay: Minimal inhibitory concentration against gram positive Streptococcus pyogenes 49399 strain (Range is 6-12 uM); assay type: functional
Streptococcus pneumoniae = assay: Minimal inhibitory concentration against gram positive Streptococcus pneumoniae 6303 strain (Range is 12-25 uM); assay type: functional
Staphylococcus aureus [12] = assay: Minimal inhibitory concentration against Staphylococcus aureus (Range is 12-25 uM); assay type: functional
Escherichia coli [13] = assay: Minimal inhibitory concentration against Escherichia coli (Range is 50-100 uM); assay type: functional
Staphylococcus aureus [14] = assay: Minimal inhibitory concentration against Staphylococcus aureus (Range is 25-50 uM); assay type: functional
Escherichia coli [15] = assay: Minimal inhibitory concentration against gram negative Escherichia coli 25922 strain; assay type: functional; details: ATCC25922
Klebsiella pneumoniae [16] = assay: Minimal inhibitory concentration against gram negative Klebsiella pneumoniae 13383 strain (Range is 25-50 uM); assay type: functional
Pseudomonas aeruginosa [17] = assay: Minimal inhibitory concentration against gram negative Pseudomonas aeruginosa 25416 strain (Range is 50-100 uM); assay type: functional
Proteus vulgaris [18] = assay: Minimal inhibitory concentration against gram negative Proteus vulgaris 8427 strain (Range is 25-50 uM); assay type: functional
Enterococcus hirae [19] = assay: Minimal inhibitory concentration against gram positive Enterococcus hirae 29212 strain (Range is 3-6 uM); assay type: functional
Escherichia coli [20] = assay: Minimal inhibitory concentration against Escherichia coli (Range is 12-25 uM); assay type: functional
Escherichia coli [21] = assay: Minimal inhibitory concentration against gram negative Escherichia coli 25922 strain (Range is 12-25 uM); assay type: functional; details: ATCC25922
Proteus vulgaris [22] = assay: Minimal inhibitory concentration against gram negative Proteus vulgaris 8427 strain (Range is 12-25 uM); assay type: functional
Escherichia coli [23] = assay: Minimal inhibitory concentration against Escherichia coli (Range is 3-6 uM); assay type: functional
Staphylococcus aureus [24] = assay: Minimal inhibitory concentration against Staphylococcus aureus (Range is 1-3 uM); assay type: functional
Enterococcus hirae [25] = assay: Minimal inhibitory concentration against gram positive Enterococcus hirae 29212 strain (Range is 25-50 uM); assay type: functional
Staphylococcus aureus [26] = assay: Minimal inhibitory concentration against Staphylococcus aureus (Range is 12-50 uM); assay type: functional
Streptococcus pyogenes [27] = assay: Minimal inhibitory concentration against gram positive Streptococcus pyogenes 49399 strain (Range is 25-50 uM); assay type: functional
Staphylococcus aureus [28] = assay: Minimal inhibitory concentration against Staphylococcus aureus (Range is 50-100 uM); assay type: functional

SMILES: O=C(Cn1c(C2CCNCC2)nc2cc(Cl)c(Cl)cc21)N/N=C/c1cc[n+]([O-])cc1
MIC (Escherichia coli [1]): > 100 µM
MIC (Staphylococcus aureus [2]): > 100 µM

SMILES: O=C(Cn1c(C2CCNCC2)nc2cc(Cl)c(Cl)cc21)N/N=C/c1ccc(O)c(O)c1O
MIC (Escherichia coli [1]): > 100 µM
MIC (Staphylococcus aureus [12]): 25 µM (≈ 12 µg/mL)

SMILES: CC(C)c1ccc2c(c1)CCC1C(C)(C/N=C(\S)NNC(=O)Cn3c(C4CCNCC4)nc4cc(Cl)c(Cl)cc43)CCC[C@]21C (stereo partly specified)
MIC (Escherichia coli [4]): 50 µM (≈ 33.5 µg/mL)
MIC (Staphylococcus aureus [14]): 50 µM (≈ 33.5 µg/mL)

SMILES: O=C(Cn1c(C2CCNCC2)nc2cc(Cl)c(Cl)cc21)N/N=C/c1cnn(-c2ccccc2)c1Cl
IC50 (Bacteria): > 100 µM
MIC (Enterococcus hirae [3]): 3 µM (≈ 1.59 µg/mL)
MIC (Escherichia coli [1]): > 100 µM
MIC (Escherichia coli [15]): > 100 µM
MIC (Klebsiella pneumoniae [16]): 50 µM (≈ 26.5 µg/mL)
MIC (Pseudomonas aeruginosa [17]): 100 µM (≈ 53.1 µg/mL)
MIC (Proteus vulgaris [18]): 50 µM (≈ 26.5 µg/mL)
MIC (Staphylococcus aureus [9]): 12 µM (≈ 6.37 µg/mL)
MIC (Staphylococcus aureus [10]): 12 µM (≈ 6.37 µg/mL)
MIC (Streptococcus pyogenes [11]): 12 µM (≈ 6.37 µg/mL)
MIC (Streptococcus pneumoniae): 25 µM (≈ 13.3 µg/mL)

SMILES: O=C(O)CC/N=C(\S)NNC(=O)Cn1c(C2CCNCC2)nc2cc(Cl)c(Cl)cc21
MIC (Escherichia coli [1]): > 100 µM
MIC (Staphylococcus aureus [2]): > 100 µM

SMILES: O=C(Cn1c(C2CCNCC2)nc2cc(Cl)c(Cl)cc21)N/N=C/c1ccc2ccccc2n1
MIC (Escherichia coli [1]): > 100 µM
MIC (Staphylococcus aureus [14]): 50 µM (≈ 24.1 µg/mL)

SMILES: O=C(Cn1c(C2CCNCC2)nc2cc(Cl)c(Cl)cc21)NNC(=O)Nc1ccc([N+](=O)[O-])cc1
MIC (Escherichia coli [1]): > 100 µM
MIC (Staphylococcus aureus [14]): 50 µM (≈ 25.3 µg/mL)

SMILES: O=C(Cn1c(C2CCNCC2)nc2cc(Cl)c(Cl)cc21)NNC(=O)NC12C[C@H]3C[C@@H](C1)C[C@@H](C2)C3
IC50 (Bacteria): > 100 µM
MIC (Enterococcus hirae [19]): 6 µM (≈ 3.12 µg/mL)
MIC (Escherichia coli [20]): 25 µM (≈ 13 µg/mL)
MIC (Escherichia coli [21]): 25 µM (≈ 13 µg/mL)
MIC (Klebsiella pneumoniae [16]): 50 µM (≈ 26 µg/mL)
MIC (Pseudomonas aeruginosa [7]): > 100 µM
MIC (Proteus vulgaris [22]): 25 µM (≈ 13 µg/mL)
MIC (Staphylococcus aureus [9]): 12 µM (≈ 6.23 µg/mL)
MIC (Staphylococcus aureus [10]): 12 µM (≈ 6.23 µg/mL)
MIC (Streptococcus pyogenes [11]): 12 µM (≈ 6.23 µg/mL)
MIC (Streptococcus pneumoniae): 25 µM (≈ 13 µg/mL)

SMILES: NC[C@@H]1O[C@H](O[C@H]2[C@@H](O)[C@H](O[C@@H]3[C@@H](O)[C@H](N)C[C@H](N)[C@H]3O[C@H]3O[C@H](CO)[C@@H](O)[C@H](O)[C@H]3N)O[C@@H]2CO)[C@H](N)[C@@H](O)[C@@H]1O [PAROMOMYCIN]
MIC (Escherichia coli [23]): 6 µM (≈ 3.69 µg/mL)
MIC (Staphylococcus aureus [24]): 3 µM (≈ 1.85 µg/mL)

SMILES: CN(C)c1ccc(N/C(S)=N/NC(=O)Cn2c(C3CCNCC3)nc3cc(Cl)c(Cl)cc32)cc1
MIC (Escherichia coli [1]): > 100 µM
MIC (Staphylococcus aureus [28]): 100 µM (≈ 52 µg/mL)

SMILES: O=C(Cn1c(C2CCNCC2)nc2cc(Cl)c(Cl)cc21)N/N=C/c1ccccn1
MIC (Escherichia coli [1]): > 100 µM
MIC (Staphylococcus aureus [2]): > 100 µM

SMILES: O=C(Cn1c(C2CCNCC2)nc2cc(Cl)c(Cl)cc21)N/N=C/c1ccc[nH]1
MIC (Escherichia coli [1]): > 100 µM
MIC (Staphylococcus aureus [12]): 25 µM (≈ 10.5 µg/mL)

Second part, the molecule after the results:

IC50 (Bacteria): > 100 µM
MIC (Enterococcus hirae [3]): 3 µM (≈ 1.56 µg/mL)
MIC (Escherichia coli [4]): 50 µM (≈ 26.1 µg/mL)
MIC (Escherichia coli [5]): 50 µM (≈ 26.1 µg/mL)
MIC (Klebsiella pneumoniae [6]): 25 µM (≈ 13 µg/mL)
MIC (Pseudomonas aeruginosa [7]): > 100 µM
MIC (Proteus vulgaris [8]): > 100 µM
MIC (Staphylococcus aureus [9]): 12 µM (≈ 6.26 µg/mL)
MIC (Staphylococcus aureus [10]): 12 µM (≈ 6.26 µg/mL)
MIC (Streptococcus pyogenes [11]): 12 µM (≈ 6.26 µg/mL)
MIC (Streptococcus pneumoniae): 25 µM (≈ 13 µg/mL)
SMILES: COc1cc(NC(=O)NNC(=O)Cn2c(C3CCNCC3)nc3cc(Cl)c(Cl)cc32)cc(OC)c1

MIC (Escherichia coli [13]): 100 µM (≈ 53 µg/mL)
MIC (Staphylococcus aureus [2]): > 100 µM
SMILES: O=C1c2ccc([N+](=O)[O-])cc2C(=O)N1CCCCCn1c(C2CCNCC2)nc2cc(Cl)c(Cl)cc21

MIC (Escherichia coli [1]): > 100 µM
MIC (Staphylococcus aureus [2]): > 100 µM
SMILES: Clc1cc2nc(SCCCCn3c(C4CCNCC4)nc4cc(Cl)c(Cl)cc43)[nH]c2cc1Cl

MIC (Escherichia coli [1]): > 100 µM
MIC (Staphylococcus aureus [2]): > 100 µM
SMILES: O=C(NCCCCCn1c(C2CCNCC2)nc2cc(Cl)c(Cl)cc21)c1ccccc1

MIC (Escherichia coli [1]): > 100 µM
MIC (Staphylococcus aureus [2]): > 100 µM
SMILES: O=C1c2ccccc2C(=O)N1CCCCCCn1c(C2CCNCC2)nc2cc(Cl)c(Cl)cc21

MIC (Escherichia coli [1]): > 100 µM
MIC (Staphylococcus aureus [2]): > 100 µM
SMILES: O=C1c2cccc([N+](=O)[O-])c2C(=O)N1CCCCCn1c(C2CCNCC2)nc2cc(Cl)c(Cl)cc21

MIC (Escherichia coli [13]): 100 µM (≈ 55.4 µg/mL)
MIC (Staphylococcus aureus [12]): 25 µM (≈ 13.9 µg/mL)
SMILES: O=C1c2cc(Cl)c(Cl)cc2C(=O)N1CCCCCn1c(C2CCNCC2)nc2cc(Cl)c(Cl)cc21

MIC (Escherichia coli [1]): > 100 µM
MIC (Staphylococcus aureus [14]): 50 µM (≈ 23.8 µg/mL)
SMILES: O=C(Cn1c(C2CCNCC2)nc2cc(Cl)c(Cl)cc21)N/N=C/c1cccc([N+](=O)[O-])c1

MIC (Escherichia coli [1]): > 100 µM
MIC (Staphylococcus aureus [2]): > 100 µM
SMILES: O=C1c2ccccc2C(=O)N1CCCCn1c(C2CCNCC2)nc2cc(Cl)c(Cl)cc21

MIC (Escherichia coli [1]): > 100 µM
MIC (Staphylococcus aureus [14]): 50 µM (≈ 25.3 µg/mL)
SMILES: COc1cc(/C=N/NC(=O)Cn2c(C3CCNCC3)nc3cc(Cl)c(Cl)cc32)cc(O)c1OC

MIC (Escherichia coli [4]): 50 µM (≈ 29 µg/mL)
MIC (Staphylococcus aureus [14]): 50 µM (≈ 29 µg/mL)
SMILES: Clc1cc2nc(C3CCNCC3)n(CCCn3c(C4CCNCC4)nc4cc(Cl)c(Cl)cc43)c2cc1Cl

IC50 (Bacteria): 25 µM
MIC (Enterococcus hirae [25]): 50 µM (≈ 24.3 µg/mL)
MIC (Escherichia coli [4]): 50 µM (≈ 24.3 µg/mL)
MIC (Escherichia coli [5]): 50 µM (≈ 24.3 µg/mL)
MIC (Klebsiella pneumoniae [16]): 50 µM (≈ 24.3 µg/mL)
MIC (Pseudomonas aeruginosa [17]): 100 µM (≈ 48.5 µg/mL)
MIC (Proteus vulgaris [18]): 50 µM (≈ 24.3 µg/mL)
MIC (Staphylococcus aureus [26]): 50 µM (≈ 24.3 µg/mL)
MIC (Staphylococcus aureus [10]): 12 µM (≈ 5.82 µg/mL)
MIC (Streptococcus pyogenes [27]): 50 µM (≈ 24.3 µg/mL)
MIC (Streptococcus pneumoniae): 25 µM (≈ 12.1 µg/mL)
SMILES: O=C1c2ccccc2C(=O)N1CCCCCn1c(C2CCNCC2)nc2cc(Cl)c(Cl)cc21

MIC (Escherichia coli [1]): > 100 µM
MIC (Staphylococcus aureus [2]): > 100 µM
SMILES: Clc1cc2nc(C3CCNCC3)n(CCCCSc3[nH]cnc4ncnc3-4)c2cc1Cl
